Assay: recombinant barcode read abundance after kanamycin selection (control-corrected) (log10(CPM+1)); higher = more efficient recombination; sequences stand for … in AGTGCAGAGAAAATCGGCCAGTTTTCTCTGCCTGCAGTCCGCATGCCGT…AGATTTATGCAGCGGACTGCCTTTCTCCCAAAGTGATAAACCGGACAGTATCATGGACCGGTTTTCCCGGTAATCCGTATTTGCAAGGTTGGTTTCACT; site = the 11-nt target
Procedure: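 Pooled E. coli target-specificity screen for the IS621 bridge recombinase. Each library plasmid pairs an 11-nt target (CT core) with a bridge RNA whose target-binding loop (9-nt LTG + 4-nt RTG) is reprogrammed; the rest of the 177-nt WT IS621 bridge RNA scaffold is fixed. The plasmid is co-electroporated with a WT donor plasmid; recombinase is induced with 0.1 mM IPTG and recombinants are selected on kanamycin. Recombinant barcodes are sequenced, converted to CPM, averaged over two biological replicates and corrected by the unselected control CPM. Molecule = full bridge RNA written as DNA: LTG = specificity nt 1-9, RTG = reverse complement of specificity nt 8-11, in the WT scaffold.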
For “ACTAGTCCTTGGGTTCTAACCTGTTGCGT (site ACTAGTCCTAC)”, the “recombinant barcode read abundance (log10)” value was 2.25. With “ACTAGTCCTTGGGTTCTAACCTGTTGCGT (site ACTAGTCCTAG)” the “recombinant barcode read abundance (log10)” value was 0.133. In the case of “ACTAGTCCTTGGGTTCTAACCTGTTGCGT (site ACTAGTCCTAT)”, the “recombinant barcode read abundance (log10)” value is reported as 0.894. For “ACTATAACTTGGGTTCTAACCTGTTGCTT (site ACTATAACTAA)”, the “recombinant barcode read abundance (log10)” value was 0.401. In the case of “ACTATAACTTGGGTTCTAACCTGTTGCTT (site ACTCTAACTAA)”, the “recombinant barcode read abundance (log10)” value is reported as 0.535. For “ACTATAACTTGGGTTCTAACCTGTTGCTT (site ACTGTAACTAA)”, the “recombinant barcode read abundance (log10)” value was 0.125. For “ACTATAACTTGGGTTCTAACCTGTTGCTT (site ACTTTAACTAA)”, the “recombinant barcode read abundance (log10)” value was 0.0487. For “ACTCACACTTGGGTTCTAACCTGTTGCTT (site ACTCACACTAA)”, the “recombinant barcode read abundance (log10)” value was 1.06. In the case of “ACTCACACTTGGGTTCTAACCTGTTGCTT (site GGAGCTCCTCG)”, the “recombinant barcode read abundance (log10)” value is reported as 0.00954. In the case of “ACTCAGACTTGGGTTCTAACCTGTTGCAC (site ACTCAGACTGT)”, the “recombinant barcode read abundance (log10)” value is reported as 1.9. With “ACTCAGACTTGGGTTCTAACCTGTTGCAC (site GGAGGTCCTCG)” the “recombinant barcode read abundance (log10)” value was 0.222. For “ACTCCAGCTTGGGTTCTAACCTGTTGCCT (site ACTCCAGCTAG)”, the “recombinant barcode read abundance (log10)” value was 1.79. In the case of “ACTCCAGCTTGGGTTCTAACCTGTTGCCT (site TAGTTTACTCT)”, the “recombinant barcode read abundance (log10)” value is reported as 0.0793. With “ACTCGTTCTTGGGTTCTAACCTGTTGCTT (site ACTCGTTCTAA)” the “recombinant barcode read abundance (log10)” value was 0.326. With “ACTCGTTCTTGGGTTCTAACCTGTTGCTT (site GCTAGTTCTAA)” the “recombinant barcode read abundance (log10)” value was 0.0673. With “ACTCTACCTTGGGTTCTAACCTGTTGCTA (site ACCCTCCCTTA)” the “recombinant barcode read abundance (log10)” value was 0.0533. With “ACTCTACCTTGGGTTCTAACCTGTTGCTA (site ACTCTACCTTA)” the “recombinant barcode read abundance (log10)” value was 1.12. With “ACTCTAGCTTGGGTTCTAACCTGTTGCTC (site ACTCTAGCTGA)” the “recombinant barcode read abundance (log10)” value was 1.05. For “ACTCTAGCTTGGGTTCTAACCTGTTGCTC (site GCTCTAGCTTA)”, the “recombinant barcode read abundance (log10)” value was 0.265. For “ACTCTGTCTTGGGTTCTAACCTGTTGCTT (site ACCCTATCTAA)”, the “recombinant barcode read abundance (log10)” value was 0.124. With “ACTCTGTCTTGGGTTCTAACCTGTTGCTT (site ACTCTGTCTAA)” the “recombinant barcode read abundance (log10)” value was 1.86. With “ACTGATGCTTGGGTTCTAACCTGTTGCCT (site ACTGATACTAG)” the “recombinant barcode read abundance (log10)” value was 1.08. For “ACTGATGCTTGGGTTCTAACCTGTTGCCT (site ACTGATCCTAG)”, the “recombinant barcode read abundance (log10)” value was 0.0449. In the case of “ACTGATGCTTGGGTTCTAACCTGTTGCCT (site ACTGATGCTAG)”, the “recombinant barcode read abundance (log10)” value is reported as 2.09. For “ACTGATGCTTGGGTTCTAACCTGTTGCCT (site ACTGATTCTAG)”, the “recombinant barcode read abundance (log10)” value was 0.0409. In the case of “ACTGTATCTTGGGTTCTAACCTGTTGCCT (site ACTGTATCTAG)”, the “recombinant barcode read abundance (log10)” value is reported as 1.13. In the case of “ACTGTATCTTGGGTTCTAACCTGTTGCCT (site CCTGTATCTAG)”, the “recombinant barcode read abundance (log10)” value is reported as 0.134. In the case of “ACTGTATCTTGGGTTCTAACCTGTTGCCT (site GCTGTATCTAG)”, the “recombinant barcode read abundance (log10)” value is reported as 0.0734. With “ACTGTATCTTGGGTTCTAACCTGTTGCCT (site TCTGTATCTAG)” the “recombinant barcode read abundance (log10)” value was 0.231. In the case of “ACTGTCACTTGGGTTCTAACCTGTTGCCT (site ACTGTCACTAG)”, the “recombinant barcode read abundance (log10)” value is reported as 2.36. With “ACTGTCACTTGGGTTCTAACCTGTTGCCT (site ACTGTGACTAG)” the “recombinant barcode read abundance (log10)” value was 0.0913. In the case of “ACTGTGACTTGGGTTCTAACCTGTTGCCT (site ACTGTCACTAG)”, the “recombinant barcode read abundance (log10)” value is reported as 0.317. In the case of “ACTGTGACTTGGGTTCTAACCTGTTGCCT (site ACTGTGACTAG)”, the “recombinant barcode read abundance (log10)” value is reported as 2.71. In the case of “ACTTAGACTTGGGTTCTAACCTGTTGCCC (site ACTTAGACTAG)”, the “recombinant barcode read abundance (log10)” value is reported as 0.424. For “ACTTAGACTTGGGTTCTAACCTGTTGCCC (site ACTTAGACTCG)”, the “recombinant barcode read abundance (log10)” value was 0.333. In the case of “ACTTAGACTTGGGTTCTAACCTGTTGCCC (site ACTTAGACTGG)”, the “recombinant barcode read abundance (log10)” value is reported as 1.46. For “ACTTAGACTTGGGTTCTAACCTGTTGCCC (site ACTTAGACTTG)”, the “recombinant barcode read abundance (log10)” value was 0. In the case of “ACTTAGTCTTGGGTTCTAACCTGTTGCTC (site ACTTAGTCTGA)”, the “recombinant barcode read abundance (log10)” value is reported as 1.04. With “ACTTAGTCTTGGGTTCTAACCTGTTGCTC (site TGCCCCGCTAG)” the “recombinant barcode read abundance (log10)” value was 0.0305. In the case of “ACTTCAACTTGGGTTCTAACCTGTTGCCT (site ACATCAACTAG)”, the “recombinant barcode read abundance (log10)” value is reported as 0.0253. With “ACTTCAACTTGGGTTCTAACCTGTTGCCT (site ACCTCAACTAG)” the “recombinant barcode read abundance (log10)” value was 0.026. For “ACTTCAACTTGGGTTCTAACCTGTTGCCT (site ACGTCAACTAG)”, the “recombinant barcode read abundance (log10)” value was 0.161. For “ACTTCAACTTGGGTTCTAACCTGTTGCCT (site ACTTCAACTAG)”, the “recombinant barcode read abundance (log10)” value was 0.101. In the case of “ACTTCACCTTGGGTTCTAACCTGTTGCCT (site ACTTCACCTAG)”, the “recombinant barcode read abundance (log10)” value is reported as 1.02. With “ACTTCACCTTGGGTTCTAACCTGTTGCCT (site ACTTCTGCTAG)” the “recombinant barcode read abundance (log10)” value was 0.0689. In the case of “ACTTCTACTTGGGTTCTAACCTGTTGCCG (site ACTTCTACTCG)”, the “recombinant barcode read abundance (log10)” value is reported as 0.195. For “ACTTCTACTTGGGTTCTAACCTGTTGCCG (site ACTTCTTCTAG)”, the “recombinant barcode read abundance (log10)” value was 0.204. With “ACTTGACCTTGGGTTCTAACCTGTTGCGG (site ACTTGACCTCC)” the “recombinant barcode read abundance (log10)” value was 2.31. With “ACTTGACCTTGGGTTCTAACCTGTTGCGG (site AGTTAACCTCC)” the “recombinant barcode read abundance (log10)” value was 0. With “ACTTGCCCTTGGGTTCTAACCTGTTGCCT (site AATTGCCCTAG)” the “recombinant barcode read abundance (log10)” value was 0.0465. With “ACTTGCCCTTGGGTTCTAACCTGTTGCCT (site ACTTGCCCTAG)” the “recombinant barcode read abundance (log10)” value was 0.925. In the case of “ACTTGCCCTTGGGTTCTAACCTGTTGCCT (site AGTTGCCCTAG)”, the “recombinant barcode read abundance (log10)” value is reported as 0.00674. For “ACTTGCCCTTGGGTTCTAACCTGTTGCCT (site ATTTGCCCTAG)”, the “recombinant barcode read abundance (log10)” value was 0.57. In the case of “ACTTTGTCTTGGGTTCTAACCTGTTGCCT (site ACATTGTCTAG)”, the “recombinant barcode read abundance (log10)” value is reported as 0.0289. For “ACTTTGTCTTGGGTTCTAACCTGTTGCCT (site ACCTTGTCTAG)”, the “recombinant barcode read abundance (log10)” value was 0.085. In the case of “ACTTTGTCTTGGGTTCTAACCTGTTGCCT (site ACGTTGTCTAG)”, the “recombinant barcode read abundance (log10)” value is reported as 0.0449. With “ACTTTGTCTTGGGTTCTAACCTGTTGCCT (site ACTTTGTCTAG)” the “recombinant barcode read abundance (log10)” value was 0.596. For “AGAAACACTTGGGTTCTAACCTGTTGCCT (site AGAAACACTAG)”, the “recombinant barcode read abundance (log10)” value was 1.34. In the case of “AGAAACACTTGGGTTCTAACCTGTTGCCT (site AGGAACACTAG)”, the “recombinant barcode read abundance (log10)” value is reported as 0.0546. In the case of “AGAAATTCTTGGGTTCTAACCTGTTGCCT (site AGAAATTCTAG)”, the “recombinant barcode read abundance (log10)” value is reported as 0.52. For “AGAAATTCTTGGGTTCTAACCTGTTGCCT (site AGCAATTCTAG)”, the “recombinant barcode read abundance (log10)” value was 0.0252. In the case of “AGAAATTCTTGGGTTCTAACCTGTTGCCT (site AGGAATTCTAG)”, the “recombinant barcode read abundance (log10)” value is reported as 0.111. For “AGAAATTCTTGGGTTCTAACCTGTTGCCT (site AGTAATTCTAG)”, the “recombinant barcode read abundance (log10)” value was 0.0316. With “AGAAGTCCTTGGGTTCTAACCTGTTGCTG (site AGAAGTCCTCA)” the “recombinant barcode read abundance (log10)” value was 1.11. With “AGAAGTCCTTGGGTTCTAACCTGTTGCTG (site AGAAGTCCTCC)” the “recombinant barcode read abundance (log10)” value was 0.0845. For “AGAAGTCCTTGGGTTCTAACCTGTTGCTG (site AGAAGTCCTCG)”, the “recombinant barcode read abundance (log10)” value was 0.0922. With “AGAAGTCCTTGGGTTCTAACCTGTTGCTG (site AGAAGTCCTCT)” the “recombinant barcode read abundance (log10)” value was 0.773. For “AGAATCCCTTGGGTTCTAACCTGTTGCTA (site AGAATCCCTTA)”, the “recombinant barcode read abundance (log10)” value was 1.74. In the case of “AGAATCCCTTGGGTTCTAACCTGTTGCTA (site GCAATCCCTTA)”, the “recombinant barcode read abundance (log10)” value is reported as 0.106. For “AGACGTCCTTGGGTTCTAACCTGTTGCGT (site AGACGTCCTAC)”, the “recombinant barcode read abundance (log10)” value was 2.51. With “AGACGTCCTTGGGTTCTAACCTGTTGCGT (site ATACGTCCTAT)” the “recombinant barcode read abundance (log10)” value was 0.233. For “AGACTAACTTGGGTTCTAACCTGTTGCTT (site AGACTAACTAA)”, the “recombinant barcode read abundance (log10)” value was 0.715. With “AGACTAACTTGGGTTCTAACCTGTTGCTT (site GGACTAACTAG)” the “recombinant barcode read abundance (log10)” value was 0.0387.

Source: the supplement of paper PMC11208160
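Note: IS621 recombinase and bridge RNA in Escherichia coli cells.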
